From patent US8003677B2, “2-heteroaryl-pyrrolo[3,4-c]pyrrole derivatives and their use as SCD inhibitors” (Sanofi-Aventis, priority 2007, dated 2011)

Each compound was assayed against T1, SCD1 (Rattus norvegicus, UniProt P07308) (assay: stearoyl-CoA desaturase (SCD1) activity in rat liver microsomes, TLC assay with 1-14C-labeled stearic acid). Conditions: inhibition of SCD1 activity; compound at 10 μM/l; 15 μg rat liver microsomes (male Wistar rats); 37° C., 1 h.
T1 construct: The resuspended microsome fraction was stored at −80° C; from tissue; host or cells: liver microsomes of male Wistar rats fed a carbohydrate-rich, low-fat diet
T1 sequence (P07308 1-358): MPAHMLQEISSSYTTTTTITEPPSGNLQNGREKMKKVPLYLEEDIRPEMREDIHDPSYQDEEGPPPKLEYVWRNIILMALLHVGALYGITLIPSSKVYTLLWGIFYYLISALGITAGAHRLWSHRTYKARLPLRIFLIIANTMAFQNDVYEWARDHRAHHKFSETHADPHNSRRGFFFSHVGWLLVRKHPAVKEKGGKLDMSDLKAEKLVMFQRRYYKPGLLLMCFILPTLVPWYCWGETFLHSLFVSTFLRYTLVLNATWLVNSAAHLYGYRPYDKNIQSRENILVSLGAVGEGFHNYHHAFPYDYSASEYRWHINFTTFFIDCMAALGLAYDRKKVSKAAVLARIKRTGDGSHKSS
Type: biochemical
Method: The efficacy of the inventive compounds of the formula I was tested with microsomal enzymes in the following assay system:
The livers of male Wistar rats which (to induce the expression of SCD1) had been fed with a carbohydrate-rich, low-fat diet were homogenized with a Potter tissue homogenizer and differential centrifugation in a buffer which contained 250 mM/l of sucrose and 5 mM/l of HEPES (pH 7.0). The resuspended microsome fraction was stored at −80° C. The stearoyl-CoA desaturase activity was determined in a thin-film chromatography assay with 1-^14C-labeled stearic acid. In short, the particular inventive compounds (in DMSO in a final concentration of 1% [v/v]) were incubated with 15 μg of the rat liver microsomes in 200 μl of assay buffer (6 mM/l of MgCl2, 250 mM/l of sucrose, 150 mM/l of KCl, 40 mM/l of NaF, 100 mM/l of Na2HPO4 (pH7.4), 1.3 mM/l of ATP, 1.5 mM/l of reduced glutathione, 60 uM/l of CoA, 0.33 mM/l of nicotinamide and 0.94 mM/l of NADH) at room temperature for 10 min. 0.5 μCi [1-^14C]-stearic acid (55 mCi/mmol) was added, and the mixture was incubated at 37° C. for 1 h. The radioactively labeled fatty acids were subsequently hydrolyzed at 65° C. with 2.5 M KOH/MeOH:H2O (4:1) for 4 h, protonated with 280 μl of formic acid and extracted with 500 μl of hexane. The TLC plates were immersed into 10% AgNO3 and heat-activated before use. 150 μl of the hexane phase were applied to the plates, and the TLC plates were developed in buffer (chloroform:methanol:acetic acid:water [90:8:1:0.8]) and dried. The plates were read off in a phosphoimager to quantify the SCD1 activity.
The person skilled in the art can modify this assay in various aspects to determine the inhibition of the stearoyl-CoA desaturase activity.

SMILES	inhibition at 10 µM [%]
CCOC(=O)c1cnc(N2CC3=C(CN(C(=O)c4ccccc4C(F)(F)F)C3)C2)s1 [Example 1, Ethyl 2-[5-(2-trifluoromethylbenzoyl)-3,4,5,6-tetrahydro-1H-pyrrolo[3,4-c]pyrrol-2-yl]thiazole-5-carboxylate]	65
O=C(NCCC1CC1)c1cnc(N2CC3=C(CN(C(=O)c4ccccc4C(F)(F)F)C3)C2)s1 [Example 2, N-(2-Cyclopropylethyl)-2-[5-(2-trifluoromethylbenzoyl)-3,4,5,6-tetrahydro-1H-pyrrolo-[3,4-c]pyrrol-2-yl]thiazole-5-carboxamide]	31
O=C(NCCCc1ccccc1)c1cnc(N2CC3=C(CN(C(=O)c4ccccc4C(F)(F)F)C3)C2)s1 [Example 9, N-(3-Phenylpropyl)-2-[5-(2-trifluoromethylbenzoyl)-3,4,5,6-tetrahydro-1H-pyrrolo[3,4-c]-pyrrol-2-yl]thiazole-5-carboxamide]	26
CCC(O)CCNC(=O)c1ccc(N2CC3=C(CN(C(=O)c4cc(OC)ccc4Br)C3)C2)nn1 (centres unmarked) [Example 18, N-(3-Hydroxypentyl)-6-[5-(2-bromo-5-methoxybenzoyl)-3,4,5,6-tetrahydro-1H-pyrrolo-[3,4-c]pyrrol-2-yl]pyridazine-3-carboxamide]	38
O=C(NCCC1CC1)c1ccc(N2CC3=C(CN(C(=O)c4ccccc4C(F)(F)F)C3)C2)nn1 [Example 19, N-(2-Cyclopropylethyl)-6-[5-(2-trifluoromethylbenzoyl)-3,4,5,6-tetrahydro-1H-pyrrolo-[3,4-c]pyrrol-2-yl]pyridazine-3-carboxamide]	100
O=C(NCC1CCCC1)c1ccc(N2CC3=C(CN(C(=O)c4ccccc4C(F)(F)F)C3)C2)nc1 [Example 21, N-Cyclopentylmethyl-6-[5-(2-trifluoromethylbenzoyl)-3,4,5,6-tetrahydro-1H-pyrrolo-[3,4-c]pyrrol-2-yl]nicotinamide]	100
O=C(NCCC1CCCC1)c1ccc(N2CC3=C(CN(C(=O)c4ccccc4C(F)(F)F)C3)C2)nc1 [Example 22, N-(2-Cyclopentylethyl)-6-[5-(2-trifluoromethylbenzoyl)-3,4,5,6-tetrahydro-1H-pyrrolo-[3,4-c]pyrrol-2-yl]nicotinamide]	100

Further lines, results first:

inhibition at 10 µM [%]	SMILES
100	CC(C)CCNC(=O)c1ccc(N2CC3=C(CN(C(=O)c4ccccc4C(F)(F)F)C3)C2)nc1 [Example 10, N-(3-Methylbutyl)-6-[5-(2-trifluoromethylbenzoyl)-3,4,5,6-tetrahydro-1H-pyrrolo[3,4-c]-pyrrol-2-yl]nicotinamide]
100	O=C(NCCc1ccccc1)c1ccc(N2CC3=C(CN(C(=O)c4ccccc4C(F)(F)F)C3)C2)nc1 [Example 13, N-Phenethyl-6-[5-(2-trifluoromethylbenzoyl)-3,4,5,6-tetrahydro-1H-pyrrolo[3,4-c]pyrrole-2-yl]nicotinamide]
100	O=C(NCCC1CC1)c1ccc(N2CC3=C(CN(C(=O)c4ccccc4C(F)(F)F)C3)C2)nc1 [Example 14, N-(2-Cyclopropylethyl)-6-[5-(2-trifluoromethylbenzoyl)-3,4,5,6-tetrahydro-1H-pyrrolo-[3,4-c]pyrrol-2-yl]nicotinamide]
100	O=C(NCc1nccs1)c1ccc(N2CC3=C(CN(C(=O)c4ccccc4C(F)(F)F)C3)C2)nc1 [Example 15, N-Thiazol-2-ylmethyl-6-[5-(2-trifluoromethylbenzoyl)-3,4,5,6-tetrahydro-1H-pyrrolo-[3,4-c]pyrrol-2-yl]nicotinamide]
100	CN(Cc1nccs1)C(=O)c1ccc(N2CC3=C(CN(C(=O)c4ccccc4C(F)(F)F)C3)C2)nc1 [Example 16, N-Methyl-N-thiazol-2-ylmethyl-6-[5-(2-trifluoromethylbenzoyl)-3,4,5,6-tetrahydro-1H-pyrrolo[3,4-c]pyrrol-2-yl]nicotinamide]
97	O=C(NCC1CC1)c1ccc(N2CC3=C(CN(C(=O)c4ccccc4C(F)(F)F)C3)C2)nc1 [Example 17, N-Cyclopropylmethyl-6-[5-(2-trifluoromethylbenzoyl)-3,4,5,6-tetrahydro-1H-pyrrolo-[3,4-c]pyrrol-2-yl]nicotinamide]
100	O=C(NCc1cncs1)c1ccc(N2CC3=C(CN(C(=O)c4ccccc4C(F)(F)F)C3)C2)nc1 [Example 20, N-Thiazol-5-ylmethyl-6-[5-(2-trifluoromethylbenzoyl)-3,4,5,6-tetrahydro-1H-pyrrolo-[3,4-c]pyrrol-2-yl]nicotinamide]
